{"source": "patent US10358447B2", "about": "“Substituted 2-N-hydroxy-1,3-dioxo-1,2,3,4-tetrahydronaphthyridines, and methods of making and using same” (ARBUTUS BIOPHARMA CORPORATION, priority 2017, dated 2019)", "format_in_all_cases": "cell-based", "key": {"[1]": {"test_system": "HA-tagged HBeAg (HBV) in DESHAe82 cells", "assay": "AlphaLisa eAg assay: HA-HBeAg level in DESHAe82 cell culture (anti-HBV / anti-cccDNA activity)", "conditions": "Hepatitis B virus, 216 h, read-out: AlphaLisa_eAg EC50 (μM)", "experimental": "Evaluation of anti-HBV activity of the compounds in in vitro cell culture studies was conducted using a modification of the assay system described in Cai et al., 2012, Antimicrobial Agents Chemotherapy 56(8):4277-88 and PCT/EP/2015/06838. In the DESHAe82 cell culture system, the HA epitope-tagged secreted HBV “e antigen” (HBeAg) and HBV precore RNA are produced only from the cccDNA circular template that is formed after HBV replication in absence of Tetracycline (Tet). The DESHAe82 cell line produces high levels of cccDNA synthesis and HA-HBeAg, and high specific readout signals with low noise. Two assay systems, a chemiluminescence ELISA (CLIA) and a proximity […] assay (AlphaLISA) were developed and used for high-sensitivity detection of HA-tagged HBeAg.\nTo test the compound, DESHAe82 were plated in 96 well tissue-culture treated microtiter plates in DMEM/F12 medium supplemented with 10% fetal bovine serum+1% penicillin-streptomycin with Tet, and incubated in a humidified incubator at 37° C. and 5% CO2 overnight. Next day, the cells were switched to fresh medium without Tet and treated with a test compound, over a range of concentrations (compound was solubilized in 100% DMSO before dilution in cell culture media, and the final DMSO concentration in the assay was 0.5%), and incubated for a duration of 9 days in a humidified incubator at 37° C. and 5% CO2. Untreated negative control samples (0.5% DMSO only) were included on each plate in multiple wells. On day 9, media was harvested and removed to a fresh plate, and level of HA-HBeAg was determined by CLIA or AlphaLISA. Anti-cccDNA activity of each test compound concentration was calculated as a percentage of HA-HBeAg signal detected in negative control samples versus compound-treated samples, and EC50 value for each compound was defined as the concentration that reduced the HA-HBeAg signal by 50%."}, "[2]": {"test_system": "HBV rcDNA in HepDE19 cells", "assay": "HepDE19 assay with bDNA quantitation of HBV rcDNA", "conditions": "Hepatitis B virus; for pEC50: 168 h, HepDE19 cells, 7 day incubation, top concentration 25 μM, read-out: bDNA_RC DNA EC50; for EC50: HepDE19, 168 h, read-out: bDNA_RC DNA EC50 (μM)", "description": "(§1) The invention further provides a method of screening compounds for activity against HBV, as exemplified herein. In certain embodiments, the method comprises a HepDE19 assay with bDNA quantitation of HBV rcDNA. HepDE19 cell culture system is a HepG2 (human hepatocarcinoma) derived cell line that supports HBV DNA replication and cccDNA formation in a tetracycline (Tet)-regulated manner and produces HBV rcDNA and a detectable reporter molecule dependent on the production and maintenance of cccDNA (Tavis & Lomonosova, 2015, Antiviral Res. 118:132-138). In certain non-limiting embodiments, HepDE19 (50,000 cells/well) are plated in 96 well collagen-coated tissue-culture treated microtiter plates in DMEM/F12 medium supplemented with 10% fetal bovine serum, 1% penicillin-streptomycin and 1 μg/ml tetracycline and incubated in a humidified incubator at 37° C. and 5% CO2 overnight. Next day, the cells are switched to fresh medium without tetracycline and incubated for 4 hrs at 37° C. and 5% CO2. The cells are treated with fresh Tet-free medium with compounds at concentrations starting at 25 μM and a serial, ½ log, 8-point, titration series in duplicate. The final DMSO concentration in the assay is 0.5%. The plates are incubated for 7 days in a humidified incubator at 37° C. and 5% CO2. Following a 7 day-incubation, the level of rcDNA present in the inhibitor-treated wells is measured using a Quantigene 2.0 bDNA assay kit (Affymetrix, Santa Clara, Calif.) with HBV specific custom probe set and manufacturer's instructions.\nIn order to differentiate HBV RNaseH inhibitors from other classes of HBV inhibitors (such as, for example, nucleos(t)ide analogs or capsid inhibitors), the assay method is configured by incorporating the quantitation of both the minus-strand and the plus-strand of HBV rcDNA levels using specifically designed HBV probe sets. This is based on the observation that inhibition of RNaseH enzyme activity results in a block of the synthesis of the plus strand synthesis by the viral polymerase that follows the synthesis of the minus-strand of rcDNA (Guo, et al., 2007, J. Virol. 81:12472-12484). […] In contrast, treatment with HBV inhibitors such as a nucleos(t)ide analogs or capsid inhibitors reduces production of both strands of HBV rcDNA in cells. Concurrently, the effect of compounds on cell viability can be assessed using replicate plates, plated at a density of 5,000 cells/well and incubated for 4 days, to determine the ATP content as a measure of cell viability using the cell-titer glo reagent (CTG; Promega Corporation, Madison, Wis.) as per manufacturer's instructions. The plates are read using a Victor luminescence plate reader (PerkinElmer Model 1420 Multilabel counter), and the relative luminescence units (RLU) data generated from each well was calculated as % inhibition of the untreated control wells and analyzed using XL-Fit module in Microsoft Excel to determine EC50 and EC90 (bDNA) and CC50 (CTG) values using a 4-parameter curve fitting algorithm.\nHepDE19 cell culture system is a HepG2 (human hepatocarcinoma) derived cell line that supports HBV DNA replication and cccDNA formation in a tetracycline (Tet)-regulated manner and produces HBV rcDNA and a detectable reporter molecule dependent on the production and maintenance of cccDNA (Guo, et al., 2007, J. Virol. 81:12472-12484). HepDE19 (50,000 cells/well) were plated in 96 well collagen-coated tissue-culture treated microtiter plates in DMEM/F12 medium supplemented with 10% fetal bovine serum, 1% penicillin-streptomycin and 1μg/ml tetracycline and incubated in a humidified incubator at 37° C. and 5% CO2 overnight. Next day, the cells were switched to fresh medium without tetracycline and incubated for 4 hrs at 37° C. and 5%CO2. The cells were treated with fresh Tet-free medium with compounds at concentrations starting at 25 μM and a serial, ½ log, 8-point, titration series in duplicate. The final DMSO concentration in the assay was 0.5%. […]"}, "[3]": {"test_system": "plus-strand of HBV rcDNA in HepDE19 cells", "assay": "HepDE19 assay with bDNA quantitation of the plus-strand of HBV rcDNA", "conditions": "Hepatitis B virus; for pEC50: 168 h, HepDE19 cells, 7 day incubation, plus-strand probe set, top concentration 25 μM, read-out: bDNA_RC DNA PS EC50", "description": "as §1\nIn order to differentiate HBV RNaseH inhibitors from other classes of HBV inhibitors (such as, for example, nucleos(t)ide analogs or capsid inhibitors), the assay method is configured by incorporating the quantitation of both the minus-strand and the plus-strand of HBV rcDNA levels using specifically designed HBV probe sets. […] Concurrently, the effect of compounds on cell viability can be assessed using replicate plates, plated at a density of 5,000 cells/well and incubated for 4 days, to determine the ATP content as a measure of cell viability using the cell-titer glo reagent (CTG; Promega Corporation, Madison, Wis.) as per manufacturer's instructions. The plates are read using a Victor luminescence plate reader (PerkinElmer Model 1420 Multilabel counter), and the relative luminescence units (RLU) data generated from each well was calculated as % inhibition of the untreated control wells and analyzed using XL-Fit module in Microsoft Excel to determine EC50 and EC90 (bDNA) and CC50 (CTG) values using a 4-parameter curve fitting algorithm. […]"}}, "note": "pEC50: −log10 of the molar value. Like-named read-outs stand apart in the source and are kept apart here."}
{"smiles": "CCOC(=O)C1C(=O)N(O)C(=O)c2ccc(OC)nc21", "note": "(stereo not shown) [Compound 1, Ethyl 6-hydroxy-2-methoxy-5,7-dioxo-5,6,7,8-tetrahydro-1,6-naphthyridine-8-carboxylate]", "values": [{"measurement": "EC50", "setting": "[1]", "value": 2.4, "unit": "µM"}, {"measurement": "pEC50", "setting": "[2]", "value": "< 4.60"}]}
{"smiles": "CCN(CC)C(=O)C1C(=O)N(O)C(=O)c2ccc(OC)nc21", "note": "(stereo not shown) [Compound 2, N,N-diethyl-6-hydroxy-2-methoxy-5,7-dioxo-5,6,7,8-tetrahydro-1,6-naphthyridine-8-carboxamide]", "values": [{"measurement": "pEC50", "setting": "[3]", "value": 4.95}, {"measurement": "EC50", "setting": "[1]", "value": 1.5, "unit": "µM"}, {"measurement": "pEC50", "setting": "[2]", "value": "< 4.60"}]}
{"smiles": "COc1ccc2c(n1)C(C(=O)Nc1ccc(Cl)cc1)C(=O)N(O)C2=O", "note": "(stereo not shown) [Compound 3, N-(4-chlorophenyl)-6-hydroxy-2-methoxy-5,7-dioxo-5,6,7,8-tetrahydro-1,6-naphthyridine-8-carboxamide]", "values": [{"measurement": "EC50", "setting": "[3]; HepDE19, 168 h, read-out: bDNA_RC DNA PS EC50 (μM)", "value": 16, "unit": "µM"}, {"measurement": "EC50", "setting": "[1]", "value": 9.6, "unit": "µM"}, {"measurement": "EC50", "setting": "[2]", "value": 9.4, "unit": "µM"}]}
{"smiles": "COc1ccc2c(n1)C(C(=O)Nc1ccc(F)cc1)C(=O)N(O)C2=O", "note": "(stereo not shown) [Compound 4, N-(4-fluorophenyl)-6-hydroxy-2-methoxy-5,7-dioxo-5,6,7,8-tetrahydro-1,6-naphthyridine-8-carboxamide]", "values": [{"measurement": "EC50", "setting": "[1]", "value": 9.6, "unit": "µM"}, {"measurement": "EC50", "setting": "[2]", "value": "> 25", "unit": "µM"}]}
{"smiles": "COc1ccc2c(n1)C(C(=O)NCc1ccc(Cl)cc1)C(=O)N(O)C2=O", "note": "(stereo not shown) [Compound 5, N-(4-chlorobenzyl)-6-hydroxy-2-methoxy-5,7-dioxo-5,6,7,8-tetrahydro-1,6-naphthyridine-8-carboxamide]", "values": [{"measurement": "pEC50", "setting": "[3]", "value": "< 4.60"}, {"measurement": "EC50", "setting": "[1]", "value": "> 50", "unit": "µM"}, {"measurement": "pEC50", "setting": "[2]", "value": "< 4.60"}]}
{"smiles": "O=C(NCc1ccc(F)cc1)C1C(=O)N(O)C(=O)c2ccc(O)nc21", "note": "(stereo not shown) [Compound 6, N-(4-fluorobenzyl)-2,6-dihydroxy-5,7-dioxo-5,6,7,8-tetrahydro-1,6-naphthyridine-8-carboxamide]", "values": [{"measurement": "pEC50", "setting": "[3]", "value": 4.82}, {"measurement": "EC50", "setting": "[1]", "value": 3.6, "unit": "µM"}, {"measurement": "pEC50", "setting": "[2]", "value": "< 4.60"}]}
